From patent US12115209B2, “ROMO1-derived antimicrobial peptides including lysine substitution and variants thereof” (KOREA UNIVERSITY RESEARCH AND BUSINESS FOUNDATION, priority 2019, dated 2024)
≈ marks a conversion by molar mass, not a printed value. Non-standard residues stand in square brackets, D forms with d. Residues, ends and D or L forms follow the SMILES beside them. No end group written: not given here. Nle = CCCC[C@H](N)C(=O)O

Tests used:
Assay type in all cases: cell-based
[1] = test system: Staphylococcus aureus (ATCC 29213); experiment: Minimum bactericidal concentration (MBC) assay; conditions: Tables 11-21, no unit printed
Description: (§1) First, each of Pseudomonas aeruginosa (ATCC 27853) and Staphylococcus aureus (ATCC 29213) was cultured in 3% (w/v) TSB (tryptic soy broth) liquid medium at 37° C. and 200 rpm for 4 hours, and then further cultured under the same conditions for 3 hours to a concentration of 5×10^6 CFU/ml. Strain solutions were prepared by diluting each of the further cultured strains with SP (sodium phosphate; 10 mM sodium phosphate, 1% TSB) buffer to a final concentration of 2×10^5 CFU/ml.
(§2) Then, each peptide at varying concentrations (0 μg/ml to 300 μg/ml) was dispensed into each well of a 96-well microplate, and 100 μl (1×10^5 CFU/ml) of each of the prepared strain solutions was added thereto, mixed therewith, and allowed to react with the peptide in an incubator at 37° C. for 1 hour.
(§3) In addition, 30 g/L of TS (tryptic soy) and 15 g/L of agar were dissolved in distilled water and sterilized, and then 25 ml of the solution was poured onto a 100 mm round plate and solidified at room temperature for one day or more, thereby preparing a TS agar plate. 10 μl of each reaction solution of the peptide and the strain was plated on the TS agar plate at a constant size, and incubated in an incubator at 37° C. for 18 hours, and then colony formation on the plate was checked. The minimum bactericidal concentration was defined as the minimum concentration of the peptide at which no colony was formed, and the experimental results are shown in Table 1 below.

[2] = test system: Pseudomonas aeruginosa (ATCC 27853); experiment: Minimum bactericidal concentration (MBC) assay; conditions: Tables 11-21, no unit printed
Description: as §1, §2, §3

[3] = test system: Methicillin-resistant Staphylococcus aureus (MRSA, ATCC 33591); experiment: Minimum bactericidal concentration (MBC) assay; conditions: Tables 11-21, no unit printed
Description: First, each of Pseudomonas aeruginosa (ATCC 27853) and Staphylococcus aureus (ATCC 29213) was cultured in 3% (w/v) TSB (tryptic soy broth) liquid medium at 37° C. and 200 rpm for 4 hours, and then further cultured under the same conditions for 3 hours to a concentration of 5×10^6 CFU/ml. Strain solutions were prepared by diluting each of the further cultured strains with SP (sodium phosphate; 10 mM sodium phosphate, 1% TSB) buffer to a final concentration of 2×10^5 CFU/ml. […]
In addition, 30 g/L of TS (tryptic soy) and 15 g/L of agar were dissolved in distilled water and sterilized, and then 25 ml of the solution was poured onto a 100 mm round plate and solidified at room temperature for one day or more, thereby preparing a TS agar plate. 10 μl of each reaction solution of the peptide and the strain was plated on the TS agar plate at a constant size, and incubated in an incubator at 37° C. for 18 hours, and then colony formation on the plate was checked.
Specifically, each type of bacteria was cultured in 3% (w/v) TSB (tryptic soy broth) liquid medium at 37° C. and 200 rpm for 4 hours, and then further cultured under the same conditions for 3 hours to a concentration of 5×10^6 CFU/ml. Strain solutions were prepared by diluting each of the further cultured strains with SP buffer to a final concentration of 2×10^5 CFU/ml.
Then, the KU-5878 peptide at varying concentrations (0 μg/ml to 300 μg/ml) was dispensed into each well of a 96-well microplate, and 100 μl (1×10^5 CFU/ml) of each of the prepared strain solutions was added thereto, mixed therewith, and allowed to react with the peptide in an incubator at 37° C. for 1 hour.
In addition, 10 μl of each reaction solution of the peptide and the strain was plated on the TS agar plate at a constant size, and incubated in an incubator at 37° C. for 18 hours, and then colony formation on the plate was checked.

CRPA = experiment: Minimum bactericidal concentration (MBC) assay; conditions: Tables 11-21, no unit printed
[4] = test system: Pseudomonas aeruginosa, Staphylococcus aureus, CRPA, MRSA; experiment: Increase in antibacterial activity (MBC) compared with KU-5878; conditions: mark = antibacterial activity increased compared with KU-5878

Row | Molecule | MBC Staphylococcus aureus [1] [µg/mL] | MBC Pseudomonas aeruginosa [2] [µg/mL] | MBC MRSA [3] [µg/mL] | MBC CRPA (CRPA) [µg/mL] | Increase in activity [4]
1 | CCCC[C@H](NC(=O)CNC(=O)[C@@H](NC(=O)[C@H](C)NC(=O)[C@H](CCCC)NC(=O)[C@H](Cc1ccccc1)NC(=O)[C@@H](NC(=O)CNC(=O)[C@H](Cc1ccccc1)NC(=O)[C@@H](NC(=O)CNC(=O)CNC(=O)[C@H](CO)NC(=O)[C@H](CCC(N)=O)NC(=O)[C@H](CCCC)NC(=O)[C@H](CCCC)NC(=O)[C@@H](NC(=O)[C@@H](N)CCCCN)[C@@H](C)O)[C@@H](C)O)[C@@H](C)O)[C@@H](C)CC)C(=O)NCC(=O)N[C@H](C(=O)N[C@@H](CCCNC(=N)N)C(=O)O)[C@@H](C)CC [KU-5878-4Nle] (H-KT[Nle][Nle]QSGGTFGTF[Nle]AIG[Nle]GIR-OH; N-terminus and C-terminus assumed) | 90 (≈ 41.8 µM) | 110 (≈ 51.1 µM) | 100 (≈ 46.5 µM) | 100 (≈ 46.5 µM) | antibacterial activity of the peptide was improved
2 | -K-MKKGGKFGTFMAIG-GIR [d 58K 60M 75M] | 6 | 6 | 8 | 8 | ◯
3 | KTMMQSGGTFGAFMAIGMGIR [KU-5878-T69A] | 300 | 300 | 300 | 300 | 
4 | KTMMQSGGTFGKFMAIGMGIR [KU-5878-T69K] | 130 | 140 | 150 | 150 | 
5 | KTMMQSGGTFGT-MAIGMGIR [Peptide 5878-d70F] | 200 | 200 | 200 | 200 | 
6 | KTMMQSGGTFGTF-AIG-GIR [5878-d71M, d75M] | 250 | 300 | 300 | 300 | 
7 | KTMMQSGGTFGTF-AIGMGIR [Peptide 5878-d71M] | 250 | 250 | 300 | 300 | 
8 | KTMMQSGGTFGTFM-IGMGIR [Peptide 5878-d72A] | 150 | 150 | 160 | 170 | 
9 | KTMMQSGGTFGTFMA-GMGIR [Peptide 5878-4731] | > 300 | > 300 | > 300 | > 300 | 
10 | KTMMQSGGTFGTFMAAGMGIR [KU-5878-I73A] | > 300 | > 300 | > 300 | > 300 | 
11 | KTMMQSGGTFGTFMAIGMAIR [KU-5878-G76A] | > 300 | > 300 | > 300 | > 300 | 
12 | KTMMQSGGTFGTFMAIGMG-R [Peptide 5878-d77I] | > 300 | > 300 | > 300 | > 300 | 
13 | KTMMQSGGTFGTFMAIGMGAR [KU-5878-I77A] | > 300 | > 300 | > 300 | > 300 | 
14 | KTMMQSGGTFGTFMAIGMGGR [KU-5878-I77G] | 90 | 80 | 90 | 100 | 
15 | KTMMQSGGTFGTFMAIGMGI [KU-5877] | 300 | 300 | > 300 | > 300 | 
16 | KTMMQSGGTFGTFMAIGMGIA [KU-5878-R78A] | > 300 | > 300 | > 300 | > 300 | 
17 | KTMMQSGGTFGTFMAIGMGIK [KU-5878-R78K] | > 300 | > 300 | > 300 | > 300 | 
18 | KTMMQSGGTFGTFMAIGMGIRQ [Peptide 5878-Q] | 180 | 150 | 180 | 180 | 
19 | KTMMQSGGTFGTFMAIGMGKR [KU-5878-I77K] | > 300 | > 300 | > 300 | > 300 | 
20 | KTMMQSGGTFGTFMAIGMGTR [KU-5878-I77T] | > 300 | > 300 | > 300 | > 300 | 
21 | KTMMQSGGTFGTFMAKGMGIR [KU-5878-I73K] | > 300 | > 300 | > 300 | > 300 | 
22 | KTMMQSGGTFGTFMAWGMGIR [KU-5878-I73W] | 300 | 300 | > 300 | 300 | 
23 | KTMMQSGGTFGTFMGIGMGIR [KU-5878-A72G] | > 300 | > 300 | > 300 | > 300 | 
24 | KTMMQSGGTFGTKMAIGMGIR [KU-5878-F70K] | > 300 | > 300 | > 300 | > 300 | 
25 | KTMMQSGGTFGTWMAIGMGIR [KU-5878-F70W] | 300 | 300 | > 300 | 300 | 
26 | KTMMQSGGTWGTFMAIGMGIR [KU-5878-F67W] | 80 | 80 | 90 | 80 | 
27 | KTMMQTGGTFGTFMAIGMGIR [KU-5878-S63T] | > 300 | > 300 | > 300 | > 300 | 
28 | KTMMRSGGTFGTFMAIGMGIR [KU-5878-Q62R] | 80 | 80 | 90 | 80 | 
29 | KTMMSSGGTFGTFMAIGMGIR [KU-5878-Q62S] | > 300 | > 300 | > 300 | > 300 | 
30 | RTMMQSGGTFGTFMAIGMGIR [KU-5878-K58R] | 120 | 120 | 120 | 120 | 
